# Experimental data as given in publication PMC6946680, “Modulation of brain cation-Cl^− cotransport via the SPAK kinase inhibitor ZT-1a” (Nature Communications, 2020).
# Values joined by “and” are separate entries in the source; they are usually repeats but may differ in a detail not shown here. Equal entries are not always repeated.
# What was measured:
# [1] = target: panel of 140 recombinant kinases; assay type: biochemical
# Experimental: Supplementary Table 2. ZT-1a kinase profiling data6.
# ZT-1a was tested at 10 and 1 µM against a panel of 140 recombinant kinases in an enzymatic
# activity-based assay performed by the International Centre for Kinase Profiling in the MRC
# Protein Phosphorylation and Ubiquitylation Unit. Values represent % residual kinase activity
# [2] = tested on: mouse model of ischemic stroke (tMCAO); assay: Infarct volume and hemispheric swelling (TTC) 24 h after tMCAO; assay type: in vivo
# [3] = tested on: KCC3 pThr1048; assay: Immunoblot of KCC site 2 phosphorylation (KCC3 Thr1048) in HEK-293 cells transfected with FLAG-KCC3; assay type: cell-based, human; conditions: for T1007/KCC2 band intensity ratio: single replicates
# [4] = tested on: mouse model of ischemic stroke (tMCAO); assay: Corner test after tMCAO; assay type: in vivo; conditions: for Corner test (Unilateral turns): Fig 7c, individual mice #1-#7
# [5] = tested on: mouse model of ischemic stroke (tMCAO); assay: Ex vivo T2-weighted MRI and DTI of brains 7 days post tMCAO; assay type: in vivo
# [6] = tested on: T1, SPAK–WNK1 interaction; assay: SPAK antibody pull-down / co-immunoprecipitation of WNK1 from HEK-293 cell lysates; assay type: binding, human; conditions: for WNK1 co-immunoprecipitated with SPAK (band quantification): Fig S6
# T1 construct: endogenous in cells; host or cells: HEK-293
# Experimental: Supplemental Fig. 6 Evidence that SPAK associates with WNK1, and interaction is disrupted by ZT-1a and its analogs. Non-transfected HEK293 cell lysates were incubated with the RFQV peptide […]
# ZT-1a for 30 min on ice and subjected to SPAK antibody immunoprecipitation. Immunoprecipitates were subjected to immunoblot probed with antibody to total WNK1 and antibody to total SPAK. Left panels: representative immunoblots. Right panels, summarized data quantitated by densitometry (n=3, means ± SEM; **,
# [7] = tested on: human fibroblast cells; assay: Cell volume measurement (calcein-AM) under hyperosmotic stress, human fibroblasts; conditions: hypertonic 515 mOsm; BMT or ZT-1a
# [8] = tested on: SPAK phosphorylation; assay: Pharmacodynamic study, SPAK phosphorylation in brain of naive mice; assay type: in vivo, mouse; conditions: Fig S8a (brain)
# Experimental: (§1) To define ZT-1a efficacy in naive mice in vivo, we examined phosphorylation of SPAK, NKCC1, and NCC in kidney, and phosphorylation of SPAK, NKCC1, and KCC3 in brain, after intraperitoneal (i.p.) administration of either ZT-1a (10, 30, 50, and 100 mg/kg) or Closantel (50 mg/kg as a reference). […]
# (§2) 5. Pharmacodynamic (PD) study
# (§3) Male C57BL/6j wild-type mice (6 weeks old, Charles River Laboratories Edinburgh UK) were treated with ZT-1a (in DMSO, Sigma) by subcutaneous injection at doses of 0, 3, 10, 30, 50 and 100 mg/kg. 50 mg/kg Closantel was administered as a comparative control. Vehicle control mice were treated with an equal volume of DMSO solution. One hour after administration, mice were sacrificed by cervical dislocation, and kidney and brain tissues were rapidly dissected and snap-frozen in liquid nitrogen. Age- […]
# (§4) free conditions at the University of Dundee (UK) as described in our recent study1. Animal experiments and breeding were approved by the University of Dundee ethical committee and performed under a […]
# (§5) Policy on the Care, Welfare and Treatment of Animals, and regulations set by the University of Dundee and the U.K. Home Office. […]
# (§6) Brain and kidney tissues were collected at 60 min post injection, and proteins subjected to immunoblot were probed with antibodies specific for phosphorylated forms of SPAK,
# [9] = tested on: SPAK phosphorylation; assay: Pharmacodynamic study, SPAK phosphorylation in kidney of naive mice; assay type: in vivo, mouse; conditions: Fig S8b (kidney)
# Experimental: as §1, §2, §3, §4, §5, §6
# [10] = tested on: C57BL/6J mice; assay: Kaplan-Meier survival of naive and ischemic stroke mice at 25 mg/kg; assay type: in vivo, mouse
# Experimental: We compared the neuroprotective efficacy of Closantel with that of the pan-WNK-kinase inhibitor WNK463. […] Moreover, toxicity of Closantel and ZT-1a at 25 mg/kg in naive and ischemic stroke mice was reflected in Kaplan–Meier survival curves (Supplementary Fig. 12).
# Supplemental Fig. 12 Kaplan-Meier survival curve of naïve and ischemic stroke mice treated with […]
# Normal naïve C57BL/6J mice, or mice after tMCAO randomly received Closantel or ZT-1a treatment […]
# was monitored for 0-7 days post-treatment. No mortality was detected in the naïve mice treated with Closantel or ZT-1a. However, all ischemic stroke mice treated with Closantel died within 2 days, with a […]
# median survival of 1 day. […]
# days). n = 3 per group (naïve+Closantel or naive+ZT-1a), n = 6 per group (tMCAO+vehicle or tMCAO+Closantel or tMCAO+ZT-1a), *p < 0.05, Log-rank test.
# [11] = tested on: tSPAK tOSR1; assay: Immunoblot of total SPAK/OSR1 in ischemic mouse brain membrane and cytosol fractions; assay type: in vivo; conditions: Membrane, single samples
# Source text: Supplement 41467_2019_13851_MOESM4_ESM.zip/Source Data.xlsx, sheet "Fig S11b and c" | column: tSPAK tOSR1/Na K pump (fold veh-CL)
# [12] = 7 days post stroke, ZT-1a 5.0 mg/kg
smiles,measurement,setting,value
"Cc1cc(C(C#N)c2ccc(Cl)cc2)c(Cl)cc1NC(=O)c1cc(Cl)ccc1O (centres unmarked) [ZT-1a, 5-chloro-N-(5-chloro-4-((4-chlorophenyl)(cyano)methyl)-2-methylphenyl)-2-hydroxybenzamide]",kinases of the 140 tested with >50% inhibition,[1]; 1 µM ZT-1a,only a single kinase
same,share of the 140 kinases not inhibited by >70%,[1]; 1 µM ZT-1a vs DMSO control,98%
same,reduction of cerebral hemispheric swelling,"[2]; ZT-1a 2.5 or 5 mg/kg, vs vehicle control",36–54%
same,infarct volume,"[2]; ZT-1a from 3 h post reperfusion, 24 h post tMCAO, n = 12",43.6 ± 6.5 mm^3
same,decrease of infarct volume,"[2]; ZT-1a from 3 h post reperfusion, 24 h post tMCAO, vs vehicle, n = 12",~ 44%
same,T1007/KCC2 band intensity ratio,"[3]; Hypotonic low Cl, 1 uM",0.223 and 0.282 and 0.213 and 0.243
same,T1007/KCC2 band intensity ratio,"[3]; Hypotonic low Cl, 3 uM",0.041 and 0.093 and 0.036 and 0.063
same,T1007/KCC2 band intensity ratio,"[3]; Hypotonic low Cl, 10 uM",0.027 and 0.033 and 0.023 and 0.03
same,T1007/KCC2 band intensity ratio,"[3]; Isotonic control, 1 uM",0.174 and 0.099 and 0.126 and 0.132
same,T1007/KCC2 band intensity ratio,"[3]; Isotonic control, 3 uM",0.134 and 0.118 and 0.103 and 0.121
same,T1007/KCC2 band intensity ratio,"[3]; Isotonic control, 10 uM",0.09 and 0.069 and 0.044 and 0.053
same,KCC3 pThr1048 / KCC3,"[3]; ZT-1a 1 uM, Fig S4b",0.35 and 0.401 and 0.302 and 0.261
same,Corner test (Unilateral turns),[4]; Day 1,9 Unilateral turns (2×) and 10 Unilateral turns and 6 Unilateral turns (4×)
same,Corner test (Unilateral turns),[4]; Day 3,6 Unilateral turns (2×) and 10 Unilateral turns and 7 Unilateral turns (3×) and 5 Unilateral turns
same,Corner test (Unilateral turns),[4]; Day 5,6 Unilateral turns (5×) and 5 Unilateral turns (2×)
same,Corner test (Unilateral turns),[4]; Day 7,6 Unilateral turns (4×) and 5 Unilateral turns (3×)
same,Corner test (Unilateral turns),[4]; Day -1 (baseline),5 Unilateral turns (5×) and 6 Unilateral turns (2×)
same,"corner test, turn preference/asymmetries","[4]; ZT-1a 5.0 mg/kg, days 1–7 post stroke",absence of asymmetries by day 7 post stroke
same,EC tract FA values in the IL hemisphere,[5]; [12],undiminished
same,reduction of brain atrophy (% hemisphere shrinkage),[5]; [12],~ 41%
same,reduction of stroke-induced lesion volume (T2-weighted MRI),[5]; [12],~ 40%
same,EC FA value,"[5]; Fig 7d, CL hemisphere, individual brains",0.3452 and 0.2737 and 0.3976 and 0.3529 and 0.3132 and 0.3022 and 0.3144
same,EC FA value,"[5]; Fig 7d, IL hemisphere, individual brains",0.3284 and 0.2019 and 0.3515 and 0.3727 and 0.2854 and 0.2283 and 0.2974
same,% Shrinkage,"[5]; Fig 7d, individual brains",4.31% and 1.96% and 1.98% and 5.61% and 5.20% and 3.63% and 2.52%
same,Lesion volume (mm3),"[5]; Fig 7d, individual brains",33.98 mm3 and 34.15 mm3 and 17.99 mm3 and 33.62 mm3 and 29.17 mm3 and 52.2 mm3 and 18.61 mm3
same,WNK1 co-immunoprecipitated with SPAK (band quantification),[6]; 10 uM,0.445 and 0.402 and 0.4282 and 0.39
same,WNK1 co-immunoprecipitated with SPAK (band quantification),[6]; 30 uM,0.176 and 0.186 and 0.196
same,WNK1 co-immunoprecipitated with SPAK (band quantification),[6]; 100 uM,0.121 and 0.086 and 0.0911 and 0.105
same,WNK1 co-immunoprecipitated with SPAK (band quantification),[6]; 300 uM,0.066 and 0.072 and 0.068 and 0.058
same,WNK1 co-immunoprecipitated with SPAK (band quantification),[6]; 1000 uM,0.048 and 0.027 and 0.0332 and 0.031
same,co-immunoprecipitation of WNK1 with SPAK,"[6]; HEK-293 cell lysates, absence or presence of competitor peptide",abolished by ZT-1a more potently than by STOCK1S-50699 or by Closantel
same,regulatory volume increase (RVI) in human fibroblast cells,[7],absence of RVI
same,pSer373 / SPAK,[8]; 10 mg/kg,0.64 and 0.68 and 0.52 and 0.61
same,pSer373 / SPAK,[8]; 30 mg/kg,0.55 and 0.6 and 0.56 and 0.52
same,pSer373 / SPAK,[8]; 50 mg/kg,0.56 and 0.65 and 0.61 and 0.53
same,pSer373 / SPAK,[8]; 100 mg/kg,0.67 and 0.54 and 0.58 and 0.5
same,pSer373 / SPAK,[9]; 10 mg/kg,0.9 and 1.08 and 0.92 and 0.99
same,pSer373 / SPAK,[9]; 30 mg/kg,0.85 and 0.8 and 0.86 and 0.76
same,pSer373 / SPAK,[9]; 50 mg/kg,0.56 and 0.45 and 0.51 and 0.41
same,pSer373 / SPAK,[9]; 100 mg/kg,0.37 and 0.44 and 0.38 and 0.4
same,mortality in naive mice,"[10]; 25 mg/kg i.p., 0-7 days, n = 3",No mortality
same,survival of ischemic stroke mice,"[10]; 25 mg/kg i.p., Kaplan–Meier, n = 6",survived longer than Closantel-treated mice
same,median survival of ischemic stroke mice,"[10]; C57BL/6J, mouse, in vivo",4 days
same,tSPAK tOSR1/Na K pump (fold veh-CL),[11],0.93 fold veh-CL and 1.11 fold veh-CL and 1.70 fold veh-CL and 1.17 fold veh-CL and 1.58 fold veh-CL
